According to patent US11834460B2, “Imide-based modulators of proteolysis and associated methods of use” (YALE UNIVERSITY, priority 2018, dated 2023):

What was measured:
Format in all cases: cell-based
c-Myc = assay: Western blot analysis of c-Myc in BL cell lines
Experimental: (§1) Cultured cells were collected in lysis buffer containing 40 mM HEPES (pH 7.4), 140 mM NaCl, 2.5 mM EDTA, 1% NP-40, 0.1% SDS and protease inhibitor cocktail. After 10 minutes of centrifugation (14000 rpm), supernatant was collected for protein concentration determination by BCA method and subjected for immunoblotting by standard protocol. Western blot results were visualized using Bio-Rad Clarity ECL Western Blotting Substrate on Bio-Rad ChemiDoc™ MP imaging system.
A separate set of cells were treated in the same manner, except that DMSO was used in place of the inhibitor. Following treatment, cell lysates were collected and analyzed by immunoblot for c-Myc and Actin.
Cells were re-seeded and incubated without inhibitor for 0 hr, 0.5 hr, 1.0 hr, 2.0 hr, 3.0 hr, 4.0 hr, and 6.0 hr. Cell lysates were then collected at the various time points and analyzed by immunoblot for c-Myc and Actin. In a parallel control experiment, NAMALWA cells were treated in the same manner, except DMSO was used in place of JQ1.
After treatment, the cells were either lysed (to evaluate the suppression of c-Myc by the inhibitors) or washed to remove the inhibitor, re-seeded, and incubated without inhibitor for 4.0 hours (to evaluate the reversibility of c-Myc suppression). Cell lysates were collected and analyzed by immunoblot for c-Myc and Actin.
Following treatment, cell lysates were collected and analyzed by immunoblot for BRD4, c-Myc and Actin.
Cells were re-seeded in fresh medium and incubated without any compound for 0 hr, 2.0 hr, 4.0 hr, 6.0 hr, and 24.0 hr. In a parallel control experiment, cells were treated in the same manner, except DMSO was used in place of inhibitor. Lysates were collected and analyzed by immunoblot for BRD4, c-Myc, and Actin.

SLC19A1 = assay: RT-QPCR of SLC19A1 gene expression in NAMALWA cells; settings: A825 0.1 μM 24 h, washout, 24 hours post-treatment
Experimental: RNA extraction was performed with Aurum™ Total RNA Mini Kit (#732-6820) from Bio-Rad. First-strand cDNA from total RNA was synthesized with High-Capacity cDNA Reverse Transcription Kit (#4368813) from Life Technologies according to manufacturer's instruction. Quantitative PCR was performed using Bio-rad SsoAdvanced™ Universal SYBR® Green Supermix (#172-5271). The following primers were used: […]
Cells were re-seeded in fresh medium and incubated without any inhibitor for 0 hr, 6.0 hr, and 24.0 hr. In a parallel control experiment, cells were treated in the same manner, except DMSO was used in place of inhibitor. At each time point, RNA was extracted from the lysates, reverse-transcribed into cDNA, and quantified by QPCR with SLC19A1 specific primers. GAPDH was also quantified by QPCR as an internal control.

[1] = system: BL cell lines (NAMALWA, Ramos, CA-46, Daudi); assay: Proliferation assay (CellTiter-Glo) in BL cell lines
Experimental: To assess the effect of the inhibitors on proliferation, cells (50,000/100 μl) were seeded in 96-well tissue culture plates followed by addition of compound at the indicated concentration. After 72 hours, 100 μL per well of reconstituted CellTiter-Glo (CTG) reagent (#G7572 from Promega) was added and read on Cytation 3 imaging reader from BioTek. Relative cell growth was determined by comparing assay readings of treated cells with control DMSO treated cells.
Specifically, NAMALWA, Ramos, CA-46, and Daudi cell lines were seeded at 50,000 cells/100 μl in 96-well plates. […] Following treatment, the relative proliferation of the samples was determined by CTG assay 72 hours following treatment.
Cells were re-seeded in fresh medium and incubated without any compound for 0 hr, 24.0 hr, and 48.0 hr. In a parallel control experiment, cells were treated in the same manner, except DMSO was used in place of inhibitor. Following treatment, the relative proliferation of the samples was determined by CTG assay.
In a parallel control experiment, cells were treated in the same manner, except DMSO was used in place of inhibitor. Following treatment, the relative proliferation of the samples was determined by CTG assay.
In a parallel experiment, cells were treated in the same manner, except DMSO was used in place of pomalidomide.

caspase 3/7 = assay: Caspase 3/7-Glow assay in BL cell lines; settings: 24 hours, A825 0.1 μM, JQ1 1.0 μM, OTX015 1.0 μM
PARP = PARP cleavage immunoblot in BL cells; settings: 48 hours; A825 0.1 uM, JQ1 and OTX15 up to 10.0 μM; Ramos cells
Experimental: as §1
Lysates were collected and analyzed by immunoblot for PARP cleavage with actin as loading control.

In the case of Cc1sc2c(c1C)C(c1ccc(Cl)cc1)=N[C@@H](CC(=O)Nc1ccc(OCCOCCOCCOCCNc3cccc4c3C(=O)N(C3CCC(=O)NC3=O)C4=O)cc1)c1nnc(C)n1-2 (some centres unmarked) [Compound A825], the “c-Myc protein level after compound removal” value (c-Myc; A825 0.1 μM 24 h, washout, 24 hours post-treatment, NAMALWA cells) is reported as “well below the control sample”, the “c-Myc downregulation (immunoblot)” value (c-Myc; A825 100-1000 nM overnight, NAMALWA and Ramos cells) is reported as “much more pronounced downregulation of c-Myc compared to JQ1 and OTX-15” and the “SLC19A1 gene expression after compound removal” value (SLC19A1) is reported as “greatly reduced compared to the control sample”. The suppression of proliferation ([1]; 72 hours, all BL cell lines tested) was “more pronounced suppression of proliferation compared to JQ1 or OTX15”, the anti-proliferation effect ([1]; A825 10 nM with 10.0 μM pomalidomide, 72 hours, all cell lines tested) was “prevented the anti-proliferation effect” and the “duration of proliferation suppression post-treatment” value ([1]; A825 0.1 μM 24 h, washout, NAMALWA cells) was “more than 48 hours”. For the same compound, the “caspase 3/7 activity” value (caspase 3/7) was “statistically significant increase in caspase activity” and the “apoptosis by PARP cleavage” value (PARP) was “prominent PARP cleavage”.
